# According to the supplement of paper PMC10307832:
# Tests used:
# Experiment in all cases: relative viability (nuclei count vs DMSO), 5 days (fraction); higher = more cells survive
# A-427 = system: A-427
# Method in brief: (§1)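 Lung cancer cell lines were seeded in 1536-well plates and dosed by pin tool the next day, with either a single drug or a fixed anchor-drug dose combined with five library-drug doses (not always all listed) spaced in √10 steps. Five days later, one step fixed the cells and stained their nuclei (final 0.05% Triton X-100, 1% formaldehyde, 1 ug/ml Hoechst), and nuclei were counted on 4× images. Relative viability is the nuclei count in treated wells divided by the count in vehicle wells, and each value is the median of duplicate plates.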
# CAL-12T = system: CAL-12T
# Method in brief: as §1
# COR-L 105 = system: COR-L 105
# Method in brief: as §1
# EMC-BAC-2 = system: EMC-BAC-2
# Method in brief: as §1
# HARA = system: HARA
# Method in brief: as §1
# HCC-366 = system: HCC-366
# Method in brief: as §1
# HCC-827 = system: HCC-827
# Method in brief: as §1
# HOP-62 = system: HOP-62
# Method in brief: as §1
# LCLC-103H = system: LCLC-103H
# Method in brief: as §1
# NCI-H1395 = system: NCI-H1395
# Method in brief: as §1
# NCI-H1437 = system: NCI-H1437
# Method in brief: as §1
# NCI-H1755 = system: NCI-H1755
# Method in brief: as §1
# NCI-H1915 = system: NCI-H1915
# Method in brief: as §1
# NCI-H2009 = system: NCI-H2009
# Method in brief: as §1
# NCI-H2228 = system: NCI-H2228
# Method in brief: as §1
# NCI-H23 = system: NCI-H23
# Method in brief: as §1
# NCI-H460 = system: NCI-H460
# Method in brief: as §1
# NCI-H522 = system: NCI-H522
# Method in brief: as §1
# NCI-H727 = system: NCI-H727
# Method in brief: as §1
# SK-LU-1 = system: SK-LU-1
# Method in brief: as §1
# SW 1573 = system: SW 1573
# Method in brief: as §1
compound,measurement,setting,value
CCN(CC)CCCCNc1ncc2cc(-c3cc(OC)cc(OC)c3)c(NC(=O)NC(C)(C)C)nc2n1 + Cc1cc(Nc2cc(N3CCN(C)CC3)nc(Sc3ccc(NC(=O)C4CC4)cc3)n2)n[nH]1 [Tozasertib] (partner 0.1 µM),relative viability,A-427; first compound 0.01 µM,0.199
same,relative viability,A-427; first compound 0.03162 µM,0.206
same,relative viability,A-427; first compound 0.1 µM,0.202
same,relative viability,A-427; first compound 0.3162 µM,0.174
same,relative viability,A-427; first compound 1 µM,0.182
same,relative viability,CAL-12T; first compound 0.01 µM,0.28
same,relative viability,CAL-12T; first compound 0.03162 µM,0.287
same,relative viability,CAL-12T; first compound 0.1 µM,0.368
same,relative viability,CAL-12T; first compound 0.3162 µM,0.257
same,relative viability,CAL-12T; first compound 1 µM,0.293
same,relative viability,COR-L 105; first compound 0.01 µM,0.366
same,relative viability,COR-L 105; first compound 0.03162 µM,0.345
same,relative viability,COR-L 105; first compound 0.1 µM,0.374
same,relative viability,COR-L 105; first compound 0.3162 µM,0.354
same,relative viability,COR-L 105; first compound 1 µM,0.354
same,relative viability,EMC-BAC-2; first compound 0.01 µM,0.162
same,relative viability,EMC-BAC-2; first compound 0.03162 µM,0.292
same,relative viability,EMC-BAC-2; first compound 0.1 µM,0.277
same,relative viability,EMC-BAC-2; first compound 0.3162 µM,0.31
same,relative viability,EMC-BAC-2; first compound 1 µM,0.26
same,relative viability,HARA; first compound 0.01 µM,0.104
same,relative viability,HARA; first compound 0.03162 µM,0.122
same,relative viability,HARA; first compound 0.1 µM,0.0948
same,relative viability,HARA; first compound 0.3162 µM,0.0933
same,relative viability,HARA; first compound 1 µM,0.0989
same,relative viability,HCC-366; first compound 0.01 µM,0.112
same,relative viability,HCC-366; first compound 0.03162 µM,0.135
same,relative viability,HCC-366; first compound 0.1 µM,0.102
same,relative viability,HCC-366; first compound 0.3162 µM,0.107
same,relative viability,HCC-366; first compound 1 µM,0.0931
same,relative viability,HCC-827; first compound 0.01 µM,0.536
same,relative viability,HCC-827; first compound 0.03162 µM,0.394
same,relative viability,HCC-827; first compound 0.1 µM,0.423
same,relative viability,HCC-827; first compound 0.3162 µM,0.547
same,relative viability,HCC-827; first compound 1 µM,0.396
same,relative viability,HOP-62; first compound 0.01 µM,0.473
same,relative viability,HOP-62; first compound 0.03162 µM,0.377
same,relative viability,HOP-62; first compound 0.1 µM,0.386
same,relative viability,HOP-62; first compound 0.3162 µM,0.408
same,relative viability,HOP-62; first compound 1 µM,0.319
same,relative viability,LCLC-103H; first compound 0.01 µM,0.588
same,relative viability,LCLC-103H; first compound 0.03162 µM,0.486
same,relative viability,LCLC-103H; first compound 0.1 µM,0.54
same,relative viability,LCLC-103H; first compound 0.3162 µM,0.452
same,relative viability,LCLC-103H; first compound 1 µM,0.31
same,relative viability,NCI-H1395; first compound 0.01 µM,0.77
same,relative viability,NCI-H1395; first compound 0.03162 µM,0.754
same,relative viability,NCI-H1395; first compound 0.1 µM,0.785
same,relative viability,NCI-H1395; first compound 0.3162 µM,0.695
same,relative viability,NCI-H1395; first compound 1 µM,0.547
same,relative viability,NCI-H1437; first compound 0.01 µM,0.426
same,relative viability,NCI-H1437; first compound 0.03162 µM,0.403
same,relative viability,NCI-H1437; first compound 0.1 µM,0.374
same,relative viability,NCI-H1437; first compound 0.3162 µM,0.46
same,relative viability,NCI-H1437; first compound 1 µM,0.335
same,relative viability,NCI-H1755; first compound 0.01 µM,0.624
same,relative viability,NCI-H1755; first compound 0.03162 µM,0.61
same,relative viability,NCI-H1755; first compound 0.1 µM,0.607
same,relative viability,NCI-H1755; first compound 0.3162 µM,0.622
same,relative viability,NCI-H1755; first compound 1 µM,0.535
same,relative viability,NCI-H1915; first compound 0.01 µM,0.464
same,relative viability,NCI-H1915; first compound 0.03162 µM,0.489
same,relative viability,NCI-H1915; first compound 0.1 µM,0.48
same,relative viability,NCI-H1915; first compound 0.3162 µM,0.461
same,relative viability,NCI-H1915; first compound 1 µM,0.348
same,relative viability,NCI-H2009; first compound 0.01 µM,0.816
same,relative viability,NCI-H2009; first compound 0.03162 µM,0.72
same,relative viability,NCI-H2009; first compound 0.1 µM,0.912
same,relative viability,NCI-H2009; first compound 0.3162 µM,0.821
same,relative viability,NCI-H2009; first compound 1 µM,0.573
same,relative viability,NCI-H2228; first compound 0.01 µM,0.183
same,relative viability,NCI-H2228; first compound 0.03162 µM,0.231
same,relative viability,NCI-H2228; first compound 0.1 µM,0.319
same,relative viability,NCI-H2228; first compound 0.3162 µM,0.258
same,relative viability,NCI-H2228; first compound 1 µM,0.197
same,relative viability,NCI-H23; first compound 0.01 µM,0.408
same,relative viability,NCI-H23; first compound 0.03162 µM,0.405
same,relative viability,NCI-H23; first compound 0.1 µM,0.352
same,relative viability,NCI-H23; first compound 0.3162 µM,0.301
same,relative viability,NCI-H23; first compound 1 µM,0.339
same,relative viability,NCI-H460; first compound 0.01 µM,0.458
same,relative viability,NCI-H460; first compound 0.03162 µM,0.66
same,relative viability,NCI-H460; first compound 0.1 µM,0.477
same,relative viability,NCI-H460; first compound 0.3162 µM,0.474
same,relative viability,NCI-H460; first compound 1 µM,0.311
same,relative viability,NCI-H522; first compound 0.01 µM,0.529
same,relative viability,NCI-H522; first compound 0.03162 µM,0.604
same,relative viability,NCI-H522; first compound 0.1 µM,0.575
same,relative viability,NCI-H522; first compound 0.3162 µM,0.49
same,relative viability,NCI-H522; first compound 1 µM,0.534
same,relative viability,NCI-H727; first compound 0.01 µM,0.661
same,relative viability,NCI-H727; first compound 0.03162 µM,0.521
same,relative viability,NCI-H727; first compound 0.1 µM,0.571
same,relative viability,NCI-H727; first compound 0.3162 µM,0.659
same,relative viability,NCI-H727; first compound 1 µM,0.525
same,relative viability,SK-LU-1; first compound 0.01 µM,0.306
same,relative viability,SK-LU-1; first compound 0.03162 µM,0.359
same,relative viability,SK-LU-1; first compound 0.1 µM,0.388
same,relative viability,SK-LU-1; first compound 0.3162 µM,0.363
same,relative viability,SK-LU-1; first compound 1 µM,0.259
same,relative viability,SW 1573; first compound 0.01 µM,0.249
same,relative viability,SW 1573; first compound 0.03162 µM,0.148
same,relative viability,SW 1573; first compound 0.1 µM,0.225
same,relative viability,SW 1573; first compound 0.3162 µM,0.193
same,relative viability,SW 1573; first compound 1 µM,0.173
